# Patent US4647586A, “Pharmaceutical oil-in-water type micro-emulsion” (priority 1984, dated 1987)
# Read-outs that look alike come from different tables or passages of the source.
# Assays:
# [1] = tested on: brewer's yeast-induced fever; assay: Effects on body temperature in pyretic rats (antipyretic activity); format: in vivo, SD-strain male rats; settings: iv, read-out: ED50 (dose reducing body temperature by at least 1.5° C. in 50% of the rats)
# Method: (a) Experimental animals SD-strain male rats (120-185 g).
# (§1) (b) Test drugs: The same as in A-1 [Test 2].
# Male Sprague-Dawley rats, weighing 120-185 g, were injected subcutaneously in the nape of the neck with 2 ml of a 20% suspension of dried brewers yeast in physiological saline. Drugs and vehicles were administered intravenously 17 hours after treatment of yeast suspension. Rectal temperature was recorded with a thermistor type thermometer (Natsume Seisakusho, BMA-77 Type) just prior to drug administration and at 1/2, 1, 2 and 4 hours after drug administration.
# [2] = tested on: Adjuvant-induced polyarthritis; assay: Adjuvant-induced polyarthritis in rats, adjuvant-injected paw [Test 2]; format: in vivo, SD-strain female rats; settings: for ED20: Rattus norvegicus, iv, read-out: ED20 (dose required to cause a 20% inhibition of adjuvant-injected paw volume)
# Method: (a) Experimental animals: SD-strain famale rats 140-180g).
# as §1
# Rats were anesthetized with ether inhalation, and 0.6 mg of Mycobacterium butyricum suspended in 0.1 ml of white paraffin oil was immediately injected intradermally into the planter surface of the left hind paw of each rat via a 27 gauge needle fitted to a 0.5 ml syringe (day 0). On the 14th day after the adjuvant injection, arthritis-established rats selected by development of secondary lesions were used. Volumes of both hind paws in arthritis-established rats were measured by a plethysmometer (UGO BASILE), and the rats were randomized on the basis of the edema volume in the adjuvant-injected paw. Once daily, beginning on the 14th day up to the 18th day, drugs and vehicles were administered intravenously. Measurements of both paw volumes were performed every day from the 15th day up to the 18th day, and on the 21st day and the 24th day. The inhibition percent were calculated in accordance with the calculation formula as in [Test 1] of A-1.
# [3] = tested on: abnormal 3-legged gait (brewers yeast-inflamed paw); assay: Reversal of abnormal 3-legged gait in rats (analgesic activity); format: in vivo, SD-strain male rats; settings: Rattus norvegicus, iv, read-out: ED50 (dose causing at least 50% reversal of gait score in 50% of the rats)
# Method: (a) Experimental animals: SD-strain male rats (120-165 g).
# as §1
# A 40% suspension of dried brewers yeast in physiological saline was injected (0.25 ml/rat) subcutaneously into the planter surface of the left hind paw of each rat. Three hours later, the walking gait on a wire mesh platform was assessed for each rat.
# 0 = Normal gait in the presence of a severely
# 0.5 = As above, with intermittent mild limping.
# 1.0 = Constant limping, but continuous use of
# 1.5 = Limping with occasional 3-legged gait
# 2.0 = Continous 3-Legged gait and/or only the
# Any rat not showing a gait score of 2 was eliminated from this test. Drugs and vehicles were then administered intravenously. Measurements of the gait were made at 1, 2, 3 and 4 hours after drug administration.
# [4] = tested on: Carrageenin-induced paw edema; assay: Carrageenin-induced paw edema in rats [Test 2]; format: in vivo, SD-strain male rats; settings: for ED30: Rattus norvegicus, iv, read-out: ED30 (dose required to cause a 30% inhibition of edema volume)
# Method: (a) Experimental animals: SD-strain male rats (120-180 g).
# A micro-emulsion containing ethyl 4-biphenylylacetate prepared as in Examples 11, 12, 13 and 14 given hereinafter was administered at a dose of 5 ml per kg of the animals. Venolipid® (Morishita Pharmaceutical Co., Ltd.) was used as a vehicle control. As control drugs, a solution or suspension of ethyl 4-biphenylylacetate in physiological saline containing 0.5% Cremophor EL® (Sigma Chemical Company, a solubilizing agent), 0.2% of polyethylene glycol 400 and 10% of dimethyl sulfoxide, a physiological saline solution of sodium 4-biphenylylacetate and a physiological saline solution of Aspirin DL-lysine [Venopirin®, Green Cross Co.] were used. As the vehicle control of the control drugs, the above solvents were used.
# A 1% carrageenin solution in physiological saline was injected subcutaneously in an amount of 0.05 ml into the planter surface of the left hind paw of each rat via a 25 gauge needle fitted to a 0.25 ml syringe. One hour after carrageenin injection, the rats were randomized on the basis of the edema volume, and intravenous administration of the drugs and vehicles followed immediately. The volume of the left hind paw was measured by a plethysmometer (Ugo Basile) prior to the injection of the carrageenin solution and at 2, 3, 4, 5 and 6 hours after the carrageenin injection. As the volume of edema, an increase in the paw volume was taken.
# The inhibition percents were calculated in accordance with the same calculation formula as in Test 1.
# [5] = tested on: synthesis of prostaglandin; settings: E. L. Tolman, American Cyanamid Company's report; cited from earlier work
# [6] = rat, in vivo
# [7] = in vivo, po; cited from earlier work
smiles,measurement,setting,value
CC(=O)Oc1ccccc1C(=O)O (racemic) [Aspirin-DL.Lysine],ED50,[1]; 17 h,76.3 mg/kg
same,Inhibition (%),"[2]; 50 mg/kg/day i.v. as aspirin, day 15",-2.7%
same,Inhibition (%),"[2]; 50 mg/kg/day i.v. as aspirin, day 16",-5.2%
same,Inhibition (%),"[2]; 50 mg/kg/day i.v. as aspirin, day 17",-3.8%
same,Inhibition (%),"[2]; 50 mg/kg/day i.v. as aspirin, day 18",-2.6%
same,Inhibition (%),"[2]; 50 mg/kg/day i.v. as aspirin, day 21",-12.4%
same,Inhibition (%),"[2]; 50 mg/kg/day i.v. as aspirin, day 24",-20.0%
same,Inhibition (%),"[2]; 100 mg/kg/day i.v. as aspirin, day 15",4.0%
same,Inhibition (%),"[2]; 100 mg/kg/day i.v. as aspirin, day 16",9.2%
same,Inhibition (%),"[2]; 100 mg/kg/day i.v. as aspirin, day 17",13.2%
same,Inhibition (%),"[2]; 100 mg/kg/day i.v. as aspirin, day 18",6.8%
same,Inhibition (%),"[2]; 100 mg/kg/day i.v. as aspirin, day 21",4.2%
same,Inhibition (%),"[2]; 100 mg/kg/day i.v. as aspirin, day 24",-2.8%
same,Inhibition (%),"[2]; 200 mg/kg/day i.v. as aspirin, day 15",6.7%
same,Inhibition (%),"[2]; 200 mg/kg/day i.v. as aspirin, day 16",11.3%
same,Inhibition (%),"[2]; 200 mg/kg/day i.v. as aspirin, day 17",16.4%
same,Inhibition (%),"[2]; 200 mg/kg/day i.v. as aspirin, day 18",15.3%
same,Inhibition (%),"[2]; 200 mg/kg/day i.v. as aspirin, day 21",7.2%
same,Inhibition (%),"[2]; 200 mg/kg/day i.v. as aspirin, day 24",6.2%
same,ED20,[2],320 mg/kg
same,ED50,[3],93.2 mg/kg
same,Inhibition (%),"[4]; 50 mg/kg i.v. as aspirin, 2 h after carrageenin",24.2%
same,Inhibition (%),"[4]; 50 mg/kg i.v. as aspirin, 3 h after carrageenin",26.7%
same,Inhibition (%),"[4]; 50 mg/kg i.v. as aspirin, 4 h after carrageenin",35.7%
same,Inhibition (%),"[4]; 50 mg/kg i.v. as aspirin, 5 h after carrageenin",29.6%
same,Inhibition (%),"[4]; 50 mg/kg i.v. as aspirin, 6 h after carrageenin",30.0%
same,Inhibition (%),"[4]; 100 mg/kg i.v. as aspirin, 2 h after carrageenin",24.2%
same,Inhibition (%),"[4]; 100 mg/kg i.v. as aspirin, 3 h after carrageenin",26.7%
same,Inhibition (%),"[4]; 100 mg/kg i.v. as aspirin, 4 h after carrageenin",26.8%
same,Inhibition (%),"[4]; 100 mg/kg i.v. as aspirin, 5 h after carrageenin",22.2%
same,Inhibition (%),"[4]; 100 mg/kg i.v. as aspirin, 6 h after carrageenin",20.0%
same,Inhibition (%),"[4]; 200 mg/kg i.v. as aspirin, 2 h after carrageenin",37.9%
same,Inhibition (%),"[4]; 200 mg/kg i.v. as aspirin, 3 h after carrageenin",43.3%
same,Inhibition (%),"[4]; 200 mg/kg i.v. as aspirin, 4 h after carrageenin",50.0%
same,Inhibition (%),"[4]; 200 mg/kg i.v. as aspirin, 5 h after carrageenin",42.6%
same,Inhibition (%),"[4]; 200 mg/kg i.v. as aspirin, 6 h after carrageenin",44.0%
same,ED30,[4],81.6 mg/kg
"O=C(O)Cc1ccc(-c2ccccc2)cc1 [4-biphenylylacetic acid, 4-Biphenylylacetic acid]","IC50, inhibition of synthesis of prostaglandin",[5],0.68 ng/mL
CCOC(=O)Cc1ccc(-c2ccccc2)cc1 [Ethyl 4-biphenylylacetate],ED50,"[1]; 17 hours after yeast, against vehicle control",3.1 mg/kg
same,Transferability to the tissues,[6],showed the same transferability to the tissues
same,Inhibition (%),"[2]; 1.25 mg/kg/day i.v. as 4-biphenylylacetic acid, day 15",-8.0%
same,Inhibition (%),"[2]; 1.25 mg/kg/day i.v. as 4-biphenylylacetic acid, day 16",-5.1%
same,Inhibition (%),"[2]; 1.25 mg/kg/day i.v. as 4-biphenylylacetic acid, day 17",-3.3%
same,Inhibition (%),"[2]; 1.25 mg/kg/day i.v. as 4-biphenylylacetic acid, day 18",-4.6%
same,Inhibition (%),"[2]; 1.25 mg/kg/day i.v. as 4-biphenylylacetic acid, day 21",-19.2%
same,Inhibition (%),"[2]; 1.25 mg/kg/day i.v. as 4-biphenylylacetic acid, day 24",-23.2%
same,Inhibition (%),"[2]; 2.5 mg/kg/day i.v. as 4-biphenylylacetic acid, day 15",-3.7%
same,Inhibition (%),"[2]; 2.5 mg/kg/day i.v. as 4-biphenylylacetic acid, day 16",0%
same,Inhibition (%),"[2]; 2.5 mg/kg/day i.v. as 4-biphenylylacetic acid, day 17",6.7%
same,Inhibition (%),"[2]; 2.5 mg/kg/day i.v. as 4-biphenylylacetic acid, day 18",5.8%
same,Inhibition (%),"[2]; 2.5 mg/kg/day i.v. as 4-biphenylylacetic acid, day 21",-6.5%
same,Inhibition (%),"[2]; 2.5 mg/kg/day i.v. as 4-biphenylylacetic acid, day 24",-17.5%
same,Inhibition (%),"[2]; 5.0 mg/kg/day i.v. as 4-biphenylylacetic acid, day 15",5.6%
same,Inhibition (%),"[2]; 5.0 mg/kg/day i.v. as 4-biphenylylacetic acid, day 16",7.2%
same,Inhibition (%),"[2]; 5.0 mg/kg/day i.v. as 4-biphenylylacetic acid, day 17",15.5%
same,Inhibition (%),"[2]; 5.0 mg/kg/day i.v. as 4-biphenylylacetic acid, day 18",15.0%
same,Inhibition (%),"[2]; 5.0 mg/kg/day i.v. as 4-biphenylylacetic acid, day 21",8.9%
same,Inhibition (%),"[2]; 5.0 mg/kg/day i.v. as 4-biphenylylacetic acid, day 24",1.3%
same,Inhibition (%),"[2]; 10.0 mg/kg/day i.v. as 4-biphenylylacetic acid, day 15",2.8%
same,Inhibition (%),"[2]; 10.0 mg/kg/day i.v. as 4-biphenylylacetic acid, day 16",10.7%
same,Inhibition (%),"[2]; 10.0 mg/kg/day i.v. as 4-biphenylylacetic acid, day 17",15.2%
same,Inhibition (%),"[2]; 10.0 mg/kg/day i.v. as 4-biphenylylacetic acid, day 18",15.6%
same,Inhibition (%),"[2]; 10.0 mg/kg/day i.v. as 4-biphenylylacetic acid, day 21",3.0%
same,Inhibition (%),"[2]; 10.0 mg/kg/day i.v. as 4-biphenylylacetic acid, day 24",-9.8%
same,ED20,[2],14.5 mg/kg
same,Inhibition (%),"[4]; 1.25 mg/kg i.v. as 4-biphenylylacetic acid, 2 h after carrageenin",14.0%
same,Inhibition (%),"[4]; 1.25 mg/kg i.v. as 4-biphenylylacetic acid, 3 h after carrageenin",17.5%
same,Inhibition (%),"[4]; 1.25 mg/kg i.v. as 4-biphenylylacetic acid, 4 h after carrageenin",9.6%
same,Inhibition (%),"[4]; 1.25 mg/kg i.v. as 4-biphenylylacetic acid, 5 h after carrageenin",9.8%
same,Inhibition (%),"[4]; 1.25 mg/kg i.v. as 4-biphenylylacetic acid, 6 h after carrageenin",6.4%
same,Inhibition (%),"[4]; 2.5 mg/kg i.v. as 4-biphenylylacetic acid, 2 h after carrageenin",19.3%
same,Inhibition (%),"[4]; 2.5 mg/kg i.v. as 4-biphenylylacetic acid, 3 h after carrageenin",26.3%
same,Inhibition (%),"[4]; 2.5 mg/kg i.v. as 4-biphenylylacetic acid, 4 h after carrageenin",17.3%
same,Inhibition (%),"[4]; 2.5 mg/kg i.v. as 4-biphenylylacetic acid, 5 h after carrageenin",17.6%
same,Inhibition (%),"[4]; 2.5 mg/kg i.v. as 4-biphenylylacetic acid, 6 h after carrageenin",12.8%
same,Inhibition (%),"[4]; 5.0 mg/kg i.v. as 4-biphenylylacetic acid, 2 h after carrageenin",17.5%
same,Inhibition (%),"[4]; 5.0 mg/kg i.v. as 4-biphenylylacetic acid, 3 h after carrageenin",28.1%
same,Inhibition (%),"[4]; 5.0 mg/kg i.v. as 4-biphenylylacetic acid, 4 h after carrageenin",23.1%
same,Inhibition (%),"[4]; 5.0 mg/kg i.v. as 4-biphenylylacetic acid, 5 h after carrageenin",23.5%
same,Inhibition (%),"[4]; 5.0 mg/kg i.v. as 4-biphenylylacetic acid, 6 h after carrageenin",19.1%
same,Inhibition (%),"[4]; 10.0 mg/kg i.v. as 4-biphenylylacetic acid, 2 h after carrageenin",22.8%
same,Inhibition (%),"[4]; 10.0 mg/kg i.v. as 4-biphenylylacetic acid, 3 h after carrageenin",22.8%
same,Inhibition (%),"[4]; 10.0 mg/kg i.v. as 4-biphenylylacetic acid, 4 h after carrageenin",26.9%
same,Inhibition (%),"[4]; 10.0 mg/kg i.v. as 4-biphenylylacetic acid, 5 h after carrageenin",25.5%
same,Inhibition (%),"[4]; 10.0 mg/kg i.v. as 4-biphenylylacetic acid, 6 h after carrageenin",27.7%
same,ED30,[4],15.8 mg/kg
"O=C(O)CCC(=O)c1ccc(-c2ccccc2)cc1 [Fenbufen, 4-(4-biphenyl)-4-oxobutyric acid]",Side effects on the digestive organs,[7],considerably reduced as compared with conventional non-steroidal anti-inflammatory agents
